# Experimental data: patent US20050019746A1, “Apoptosis-related kinase/GPCRs” (EiRx Therapeutics Limited, priority 2003, published 2005)
# Assays:
# cancer cell lines = test: Anchorage Independence/Soft Agar Assay, summary over the cell lines; type: cell-based, human; conditions: 14-day anchorage independent assay, over the cell lines examined
# Procedure: (§1) The Anchorage Independence/Soft Agar Assay allows assessment of the influence of modulation of gene expression on clonal tumouroid formation by observing and quantifying tumouroid morphology and colony number over an extended period of logarithmic growth thereby ascertaining any cell death is induced.
# (§2) Cells are seeded into a 6-well plate and allowed to adhere overnight at 37° C. in a humidified atmosphere containing 5% CO2 in air. Cells are next transfected with siRNA Oligomers, at a concentration of 2 μg, against the genes of interest. Transfections continued for 4 hrs after which the transfection solution is removed and cells are refed with fresh medium and allowed incubate overnight. Transfected cells are next harvested for seeding into soft agar assay as described below. Cells are seeded at 5×10^4 cells per well of a 6 well plate and incubated over a 12/14-Day period whilst proliferating in a 0.05% Agar/Medium cell suspension at 37° C. in a humidified atmosphere containing 5% CO2 in air. Colonies formed are subsequently stained with Crystal Violet, their morphology is assessed and colonies formed are enumerated at a 4× magnification.
# (§3) The cytotoxic effect of each gene is determined by a reduction in colony number compared to our MS control, but any influence on the morphology of the colony is also noted.
# As an internal reference, the known survival gene ‘Survivin’ was also targeted by siRNA.
# A498 cells = test: 10-14 day Clonagenicity Assay (MTT), A498; type: cell-based, human; conditions: independent experiment n = 3, dilution point of maximum toxicity
# Text: (§4) The Clonagenicity Assay represents a Cell Viability Screen that allows assessment of a cytotoxic insult at a variety of seed densities of cancer cell lines over an extended period of logarithmic growth, such that the definitive effect of the test substance can be accurately quantified. In this instance, the ‘cytotoxic insult’ to be tested involves the transfection of siRNA Oligomers to knockdown the expression of novel target Kinases and GPCRs as outlined previously. Cell number is quantified 10-14 days post siRNA transfection by MTT conversion as described in detail in Example 6.
# (§5) The Clonagenicity Assay is optimised for each cell line examined with respect to seed number. The seed number varies for each cell line and accounts for the differences in cell size, growth rate and sensitivity to transfection-induced toxicity for each cell line pursued. Cells lines given as models for this example include HCT15, MCF7, A549, SKOV3, DU145, U251, PC3, A498 and HeLa. The siRNA oligo to Survivin serves as a positive control for toxicity in this assay and the missense control oligomer acts as a negative control as described in detail in Examples 5 and 6. The c-Raf, BCL2 and PI3K siRNA oligomers serve as additional controls as previously mentioned. The Clonagenicity assay is performed as outlined below.
# (§6) Cells are seeded into a 96-well plate as described below and allowed to adhere overnight at 37° C. in a humidified atmosphere containing 5% CO2 in air. Wells are seeded with an appropriate cell number (cell line dependent) in Column 1 of the 96 well plates and this cell suspension is diluted 1 in 2 across the 96 well plates from Column 1 through to 6 (represented on the x-axis in results). Cells are next transfected with siRNA Oligomers, at a concentration of 2 μg/ml, against the genes of interest. Transfections continue for 4 hrs after which the transfection solution is removed and cells are refed with fresh medium and allow to incubate overnight. An additional media change@24 hrs post transfection is made to minimise toxicity of the transfection reagent. Cells are subsequently incubated for a 10-14 Day period post transfection at a 37° C. incubation as described above. Medium is renewed weekly following which MTT quantification is performed as described in Example 5.
# (§7) To be considered cytotoxic, the siRNA Oligo against the gene target must induce a decreased viability in a cell line across at least 2 seed densities in the clonagenicity assay, such that a significant difference between the target gene and MS is observed i.e. no crossing of the Standard Error bars is detected. The average percentage viability, relative to missense, is recorded for the dilution point at which Maximum Toxicity is induced is recorded in Table 13.
# (§8) Table 13 Clonagenicity Assay—This table gives the average percentage survival of the indicated cell lines relative to the missense in a clonagenicity assay, over 3 independent experiments. As an internal reference, the known survival gene ‘Survivin’, BCL2, c-Raf and PI3KR1 was also targeted by siRNA. When no Cytotoxic response is detected ‘-’ is recorded.
# A549 cells [1] = test: 10-14 day Clonagenicity Assay (MTT), A549; type: cell-based, human; conditions: independent experiment n = 3, dilution point of maximum toxicity
# Text: as §4, §5, §6, §7, §8
# HCT15 cells [2] = test: 10-14 day Clonagenicity Assay (MTT), HCT15; type: cell-based, human; conditions: independent experiment n = 1, dilution point of maximum toxicity
# Text: as §4, §5, §6, §7, §8
# DU145 cells = test: 10-14 day Clonagenicity Assay (MTT), DU145; type: cell-based, human; conditions: independent experiment n = 2, dilution point of maximum toxicity
# Text: as §4, §5, §6, §7, §8
# HCT15 cells [3] = test: Anchorage Independence/Soft Agar Assay, HCT15; type: cell-based, human; parameters: PERCENTAGE SURVIVAL RELATIVE TO MS, HCT15, n = 2: tested at 2 µg; PERCENTAGE SURVIVAL RELATIVE TO MS, HCT15, n = 1: tested at 2 µg siRNA; conditions: soft agar
# Procedure: as §1, §2, §3
# (§9) Examples of genes with a cytotoxic effect on knockdown as detected by the soft agar assay are outlined in Table 14. Table 14 gives the percentage survival of the indicated cell lines post transfection with siRNA oligomers to target genes relative to that of the missense in an anchorage independent assay. As an internal reference, the known survival gene Survivin was also targeted by siRNA. This table illustrates the magnitude of cytotoxicity induced by the knockdown of each target gene compared to the MS control i.e. the number of colonies formed are stained with Crystal violet and enumerated visually as discussed.
# SKOV3 cells = test: 10-14 day Clonagenicity Assay (MTT), SKOV3; type: cell-based, human; conditions: independent experiment n = 1, dilution point of maximum toxicity
# Text: as §4, §5, §6, §7, §8
# MCF7 cells = test: Anchorage Independence/Soft Agar Assay, MCF7; type: cell-based, human; parameters: PERCENTAGE SURVIVAL RELATIVE TO MS, MCF7, n = 2: tested at 2 µg; conditions: soft agar
# Procedure: as §1, §2, §3, §9
# A549 cells [4] = test: Anchorage Independence/Soft Agar Assay, A549; type: cell-based, human; parameters: PERCENTAGE SURVIVAL RELATIVE TO MS, A549, n = 2: tested at 2 µg; conditions: soft agar
# Procedure: as §1, §2, §3, §9
# [5] = system: PDK1 regulatory sites in S6K1 and Akt; conditions: Ballif et al; cited from earlier work
# glioblastoma cell = conditions: Narla et al; cited from earlier work
# [6] = system: JAK3-positive leukemia cell lines DAUDI, RAMOS, LC1;19, NALM-6, MOLT-3, HL-60; conditions: concentration-dependent, not JAK3-negative lines (Sudbeck et al); cited from earlier work
# [7] = system: human primary neutrophils; test: Neutrophil apoptosis by sub G1 analysis (DNA fragmentation); type: cell-based; conditions: inhibitor 20 μM with GM-CSF 50 units/ml, 18 h, relative to GM-CSF alone
# Procedure: Neutrophils are isolated from the blood as described in WO 02/04657 and resuspended at a concentration of 2×10^6/ml. Five hundred microlitres are pipetted into wells of a 24 well plate and incubated in the presence or absence of survival factors.
# After this incubation, the neutrophils are carefully resuspended by gentle agitation and the total contents of the well are placed into an eppendorf and centrifuged@2800 rpm for 2 min@RT in a minifuge. The cell pellet is carefully resuspended in 300 μl of ice cold hypotonic fluorochrome solution (50 μg/ml Propidium Iodide, 0.1% Sodium Citrate and 0.1% Triton X-100) and placed in a fridge for 24 h@4° C.
# Prepared samples are analysed with a FacsCalibre flow cytometer (Becton Dickinson) using double discrimination to ensure single cell suspension with Log Forward and Side Scatter Parameter acquisition.
# (§10) Neutrophils are seeded at 2×10^6/ml in a 24 well plate in full culture medium (1 ml/well). A PI3K inhibitor (Ly294002) is added to the neutrophils to a final concentration of 20 μM prior to the addition of GM-CSF (50 units/ml). Control wells received either no GM-CSF or F GM-CSF (50 units/ml) in the absence of inhibitor. Neutrophils are cultured for 18 h at 37° C. prior to harvest and prepared for sub G1 analysis, as previously described.
# as §10, with “An AKT” for “A PI3K”, “([1L-6-Hydroxymethyl-chiro-inositol 2-O-methyl-3-O-octadecylcarbonate] (Calbiochem))” for “(Ly294002)”, “μM and incubated for 2 h” for “μM”, “receive” for “received”, “or” for “or F”
molecule,measurement,setting,value
"siRNA c-Raf: control siRNA, sense UAGUUCAGCAGUUUGGCUAtt, antisense UAGCCAAACUGCUGAACUAtt (sense UAGUUCAGCAGUUUGGCUATT; antisense UAGCCAAACUGCUGAACUATT; chemistry not given here) [reference compound]",cell death / apoptosis in the soft agar assay,cancer cell lines,only induced cell death in the A549 and HCT15 cell lines
same,"percentage survival relative to the missense, n = 3",A498 cells,14.8%
same,"percentage survival relative to the missense, n = 3",A549 cells [1],59.1%
same,"percentage survival relative to the missense, n = 1",HCT15 cells [2],83.5%
same,"percentage survival relative to the missense, n = 2",DU145 cells,54.9%
same,"PERCENTAGE SURVIVAL RELATIVE TO MS, HCT15, n = 1",HCT15 cells [3]; experiment n = 1,70%
same,"PERCENTAGE SURVIVAL RELATIVE TO MS, HCT15, n = 2",HCT15 cells [3]; experiment n = 2,65.1%
same,"percentage survival relative to the missense, n = 1",SKOV3 cells,42.5%
same,"PERCENTAGE SURVIVAL RELATIVE TO MS, MCF7, n = 1",MCF7 cells; experiment n = 1,89.7%
same,"PERCENTAGE SURVIVAL RELATIVE TO MS, MCF7, n = 2",MCF7 cells; experiment n = 2,98.2%
same,"PERCENTAGE SURVIVAL RELATIVE TO MS, A549, n = 1",A549 cells [4]; experiment n = 1,57%
same,"PERCENTAGE SURVIVAL RELATIVE TO MS, A549, n = 2",A549 cells [4]; experiment n = 2,24.2%
"Cc1ccc(S(=O)(=O)N[C@@H](Cc2ccccc2)C(=O)CCl)cc1 [TPCK, n-alpha-tosyl-1-phenylalanyl chloromethyl ketone]",phosphorylation of PDK1 regulatory sites,[5],prevented phosphorylation of the PDK1 regulatory sites in S6K1 and Akt
COc1cc2ncnc(Nc3ccc(O)cc3)c2cc1OC [WHI-P131],glioblastoma cell adhesion and migration,glioblastoma cell,potent inhibitors of glioblastoma cell adhesion and migration
same,clonogenic growth,[6],inhibited the clonogenic growth
CCCCCCCCCCCCCCCCCCOC(=O)OC1C(O)C(O)C(CO)C(O)C1OC (centres unmarked) [1L-6-Hydroxymethyl-chiro-inositol 2-O-methyl-3-O-octadecylcarbonate],apoptosis / GM-CSF mediated survival by sub G1 analysis,[7],survival is abrogated
same,apoptosis / GM-CSF mediated survival by sub G1 analysis,[7]; listed as IL-6-Hydroxymethyl-chiro-inositol 2-(R)-2-O-methyl-3-O-octadecylcarbonate,increases the amount of apoptosis
